Experimental data: US20080095834A1, “Mitochondriotropic Phospholipid Vesicles” (priority 2005, published 2008)

Test system: COLO205 colon cancer cells
Experiment: Apoptotic DNA laddering, DNA gel separation analysis
Type: cell-based
Details: 18 hrs, ceramide 25 μM
Method: FIG. 8 represents a micrograph of DNA gel separation analysis of COLO205 cells incubated with C6 ceramide-loaded mitochondriotropic liposomes according to the invention for 18 hrs, followed by extraction of their DNA. The concentration of ceramide in all samples was 25 μM. Lane A—DNA marker; lane B—untreated control; lane C—ceramide-loaded plain liposomes; lane D—ceramide loaded STPP liposomes according to the invention; lane E—free ceramide. Black arrows indicate the apoptotic DNA ladder. Total amount of DNA was identical in all lanes; and
FIG. 8 represents a micrograph of DNA gel separation analysis of cells of the colon cancer cell line COLO205 incubated with C6 ceramide-loaded mitochondriotropic liposomes according to the invention for 18 hrs, followed by extraction of their DNA. The concentration of ceramide in all samples was 25 μM. Lane A—DNA marker; lane B—untreated control; lane C—ceramide-loaded plain liposomes; lane D—ceramide loaded STPP liposomes according to the invention; lane E—free ceramide. Black arrows indicate the apoptotic DNA ladder. The total amount of DNA was identical in all lanes.

For `CCCCCCCCCCCCC/C=C/[C@@H](O)[C@H](CO)NC(=O)CCCCC` [free ceramide, C6 ceramide], the “DNA laddering typical of apoptosis” value was “nor cells treated with free ceramide (Lane E, FIG. 8) showed the DNA laddering typical of apoptosis”.
